In experiment [1] the test system is VSMCs. Kind of experiment: Oxidative stress in VSMCs (DCFDA to DCF fluorescence). The class given is cell-based. Conditions: 10 μM, fluorescence measured for 6 hours. The protocol: It is known that the level of reactive oxygen species in cells can be measured by measuring the conversion of 2′,7′-dichlorofluorescein diacetate (DCFDA) to the fluorescent dye 2′,7′-dichlorofluorescein (DCF). The fluorescence generated by cells subjected to DCFDA is directly proportional to the amount of oxidized DCFDA to DCF.
To perform the study, VSMCs (10,000 cells/well) were plated in a 96-well plate and left to adhere overnight. Next, cells were incubated for 1 hour with 20 μM DCFDA. The medium was then changed to medium supplemented with 10 μM vitamin K2 (MK-7). To visualize intracellular oxidative stress, fluorescence was measured for 6 hours and fluorescence intensity was normalized for cell count.

The subject of experiment [2] is VSMCs. Briefly: ATP increase in VSMCs, 24 hours (luminescence). It counts as cell-based. As to conditions: 10 μM. The protocol: This study was performed to determine if vitamin K2 (MK-7) affects ATP generation. ATP is generated via glycolysis in the cytoplasm and via both the Krebs-cycle and oxidative phosphorylation in the mitochondria. ATP generation via glycolysis delivers only 2 ATP, whereas ATP generation in the mitochondria generates some 32 ATP.
(§1) To perform this study, VSCMs (5000 cells/well) were plated in 96-well plates and left to adhere overnight. Next, cells were incubated for 24 hours with either vehicle, vitamin K2 (MK-7) (10 μM), or UQ10 (10 μM). Hoechst was added to correct for cell number (1 μg/mL). Next, ATP was measured using mammalian lysis buffer for 5 minutes after which 50 μL ATP substrate solution was added to the wells and incubated for 10 minutes in a dark environment. Finally, the medium was transferred to a white plate to measure luminescence

For experiment [3], the system named is VSMCs. Kind of experiment: ATP increase in VSMCs, 48 hours, with CoCl2 arm (luminescence). The class given is cell-based. Here is the method: as §1, with “This study was performed to further investigate the origin of ATP production that is influenced by vitamin K2 (MK-7). To” for “To”, “for 48” for “for 24”, “vehicle, CoCl2 (100 μM),” for “vehicle,”, “5 minutes,” for “5 minutes”, “Finally,” for “Finally, the”, “measure luminescence.” for “measure luminescence”

Experiment [4] can be described thus: Thrombin Time (TT), Coag-Chrom 3003, treated Sprague-Dawley rats. It counts as in vivo. As to conditions: added to dabigatran and to rivaroxaban. The protocol: To perform the study, 45 wild-type male Sprague-Dawley and 45 transgenic male Ren-2 rats [TGR(mREN-2)27] at the age of 10-11 weeks at the beginning of the treatment period were purchased from animal facility IKEM-CEM Institute of Clinical and Experimental Medicine (Prague, Czech Republic). All animals in the experiment were housed in individually ventilated cages (2-3 rats per cage) and kept in the animal rooms of JCET at a relative humidity of 55±10%, a temperature of 22±2° C., and a light cycle of 7 AM to 7 PM. The rats had free access to food and water. After delivery, animals were randomly divided into 10 experimental groups (5 or 10 rats per group), as indicated below in Table 1.
Four days before the start of the treatment, the first part of animals' body weight and food intake was measured in selected representative three cages (rats n=9) to calculate the appropriate amount of tested compounds required for addition to the diet to obtain the dosing indicated in Table 1. It was estimated that food intake was approximately 30 g of chow per rat per day. […] The body mass of the rats was measured at the beginning and at the end of treatment.
Prothrombin Time (PT), activated Partial Thromboplastin Time (aPTT), Thrombin Time (TT) and fibrinogen levels (Clauss method) were determined according to the manufacturer's instructions using Coag-Chrom 3003 apparatus (Bio-ksel, Grudziadz, Poland). […]

The subject of experiment [5] is VSMCs. Kind of experiment: Hypoxia (CoCl2) induced oxidative stress in VSMCs (DCFDA). It counts as cell-based. As to conditions: 50 μM CoCl2 for 19 hours; test substance 10 μM; 6 hours. Here is the method: This study was performed to determine whether intracellular oxidative stress in VSCMs is derived from mitochondrial dysfunction. To perform this study, VSMCs were incubated with cobalt chloride, a known stabilizer of HIF1a. Cobalt chloride binding to HIF1a prevents the degradation of HIF1a and thus results in a cellular hypoxia state. HIF1a has been implicated in cancer biology as well as a number of other pathophysiologies, specifically in areas of vascularization and angiogenesis, energy metabolism, cell survival, and tumor invasion. Under normal circumstances, after injury, HIF1a is degraded by the enzyme prolyl hydroxylase (PHD). The continued up-regulation of HIF1a (mimicked by cobalt chloride) promotes tumor growth and metastasis through its role in initiating angiogenesis and regulating cellular metabolism to overcome hypoxia. Hypoxia promotes apoptosis in both normal and tumor cells. Additionally, hypoxia generates significant intracellular oxidative stress.
To perform the study, VSMCs (10,000 cells/well) were plated in a 96-well plate and left to adhere overnight. Next, the medium was changed to a medium supplemented with 50 μM CoCl2 for 19 hours. The next day, cells were washed and incubated for 1 hour with 20 μM DCFDA in the presence of a vehicle (solvent for CoCl2 and vitamin K2 (MK-7)/UQ10), 10 μM vitamin K2 (MK-7), or 10 μM UQ10 in medium. The medium was then changed to a medium supplemented with vehicle, vitamin K2 (MK-7)/UQ10, or CoCl2, and fluorescent was measured for 6 hours. Fluorescence intensity was normalized for cell count.

As for `CC(C)=CCC/C(C)=C/CC/C(C)=C/CC/C(C)=C/CC/C(C)=C/CC/C(C)=C/CC/C(C)=C/CC1=C(C)C(=O)c2ccccc2C1=O` [vitamin K2 (MK-7)], the “oxidative stress (DCF fluorescence normalized for cell count)” value with VSMCs [1] was “clearly reduced the oxidative stress”. Further, the “ATP production compared to the vehicle” value in the experiment with VSMCs [2] is listed as “increased ATP production in VSMCs significantly (p=0.014)”. Moreover, the “ATP levels compared to CoCl2” value in the experiment on VSMCs [3] (10 μM vs CoCl2 100 μM) is reported as “significant higher ATP levels”. Besides, the “ATP production compared to vehicle” value in the experiment on VSMCs [3] (CoCl2 100 μM, vitamin K2 (MK-7) 10 μM) is “increased ATP production slightly, though significant”. Further, the “increase of thrombin time by addition of vitamin K2 (MK-7)” value in experiment [4] is given as 5-7%. For the same compound, in the experiment with VSMCs [5], the “hypoxia induced oxidative stress” value is “seems to counteract hypoxia induced oxidative stress”.

The values are drawn from US20200289521A1, “USE OF VITAMIN K IN COMBINATION WITH ANTICOAGULANTS” (KAYDENCE PHARMA AS, priority 2019, published 2020).
